Measured values: patent publication US10160762B2, “6-alkyl dihydropyrazolopyrimidinone compounds as PDE2 inhibitors” (Merck Sharp & Dohme Corp., priority 2015, dated 2018)

Molecular target: T1, Rhesus PDE2A3 (Macaca mulatta, UniProt B3VTJ2)
T1 construct: made in house; host or cells: AD293 cells, transient transfection; supernatant of sonicated lysate
T1 sequence (B3VTJ2 1-941): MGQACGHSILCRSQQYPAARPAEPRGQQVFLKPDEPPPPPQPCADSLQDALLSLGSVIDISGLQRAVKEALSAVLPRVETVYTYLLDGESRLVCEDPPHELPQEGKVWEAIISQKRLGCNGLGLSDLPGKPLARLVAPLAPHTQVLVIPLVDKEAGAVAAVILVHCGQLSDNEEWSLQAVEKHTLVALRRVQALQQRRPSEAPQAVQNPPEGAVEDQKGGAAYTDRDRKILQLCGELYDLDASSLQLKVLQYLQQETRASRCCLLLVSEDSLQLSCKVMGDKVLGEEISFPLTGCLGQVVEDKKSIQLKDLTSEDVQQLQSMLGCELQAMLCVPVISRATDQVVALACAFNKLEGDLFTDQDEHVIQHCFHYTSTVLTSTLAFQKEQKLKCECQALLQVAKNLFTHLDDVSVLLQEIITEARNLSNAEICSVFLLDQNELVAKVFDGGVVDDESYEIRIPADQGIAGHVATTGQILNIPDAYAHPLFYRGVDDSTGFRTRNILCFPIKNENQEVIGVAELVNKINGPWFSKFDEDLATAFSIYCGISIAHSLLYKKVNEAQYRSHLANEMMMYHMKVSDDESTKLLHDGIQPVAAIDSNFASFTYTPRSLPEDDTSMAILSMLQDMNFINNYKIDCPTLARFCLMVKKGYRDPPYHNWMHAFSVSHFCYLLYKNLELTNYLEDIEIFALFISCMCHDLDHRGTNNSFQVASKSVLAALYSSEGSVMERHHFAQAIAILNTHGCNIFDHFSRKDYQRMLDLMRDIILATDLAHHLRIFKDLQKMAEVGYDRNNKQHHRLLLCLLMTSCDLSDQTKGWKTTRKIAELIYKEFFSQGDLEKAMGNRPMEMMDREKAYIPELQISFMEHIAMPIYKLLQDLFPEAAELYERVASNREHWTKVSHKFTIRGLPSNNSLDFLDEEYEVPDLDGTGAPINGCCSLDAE
Test: PDE2 fluorescence polarization (IMAP FP) inhibition assay, rhesus PDE2A3
Type: biochemical, rhesus macaque
Details: Lab B; read-out: Rhesus PDE2 Ki (nM) Lab B
In short: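 Enzyme source was the lysate supernatant of AD293 cells transiently expressing rhesus PDE2A3, diluted to give 20% conversion of 50 nM FAM-cAMP, with 1 µM cGMP as activator. Buffer was 10 mM Tris pH 7.2, 10 mM MgCl2, 1 mM DTT.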

SMILES	Ki
Cc1nc2c(c(CO)nn2C(C)c2ccc(C(F)(F)F)cc2Cl)c(=O)[nH]1 (single isomer, unassigned) [Example 19, (S)- or (R)-1-(1-(2-Chloro-4-(trifluoromethyl)phenyl)ethyl)-3-(hydroxymethyl)-6-methyl-1H-pyrazolo[3,4-d]pyrimidin-4(5H)-one]	1.9 nM
Cc1nc2c(c(CO)nn2C(C)c2ccc(S(F)(F)(F)(F)F)cc2)c(=O)[nH]1 (single isomer, unassigned) [Example 77]	4.2 nM
Cc1nc2c(c(CC(F)F)nn2C(C)c2ccc(C(F)(F)F)cc2)c(=O)[nH]1 (single isomer, unassigned) [Example 285]	179 nM
Cc1nc2c(c(C#N)nn2C(C)c2ccc(C(F)(F)F)cc2)c(=O)[nH]1 (single isomer, unassigned) [Example 252]	20 nM
Cc1nc2c(c(CO)nn2C(c2ccc(C(F)(F)F)cc2)C(C)(C)C)c(=O)[nH]1 (single isomer, unassigned) [Example 83, (S)- or (R)-1-(2,2-Dimethyl-1-(4-(trifluoromethyl)phenyl)-propyl)-3-(hydroxymethyl)-6-methyl-1H-pyrazolo[3,4-d]pyrimidin-4(5H)-one]	9.4 nM
COCc1nn(C(C)c2ccc(C(F)(F)F)cc2)c2nc(C)[nH]c(=O)c12 (single isomer, unassigned) [Example 279]	24 nM
Cc1nc2c(c(C(F)(F)CO)nn2C(C)c2ccc(C(F)(F)F)cc2)c(=O)[nH]1 (single isomer, unassigned) [Example 255]	1.5 nM
Cc1nc2c(c(CC#N)nn2C(C)c2ccc(C(F)(F)F)cc2)c(=O)[nH]1 (single isomer, unassigned) [Example 280]	71 nM
Cc1nc2c(c(CO)nn2C(c2ccc(C(F)(F)F)c(F)c2)C2CC2)c(=O)[nH]1 (single isomer, unassigned) [Example 90, (R)- or (S)-1-(Cyclopropyl(3-fluoro-4-(trifluoromethyl)phenyl)methyl)-3-(hydroxymethyl)-6-methyl-1H-pyrazolo[3,4-d]pyrimidin-4(5H)-one]	90 nM
Cc1nc2c(c(CO)nn2C(C)c2ccc(OC(F)F)cc2)c(=O)[nH]1 (single isomer, unassigned) [Example 21, (S)- or (R)-1-(1-(4-(Difluoromethoxy)phenyl)ethyl)-3-(hydroxymethyl)-6-methyl-1H-pyrazolo[3,4-d]pyrimidin-4(5H)-one]	2.9 nM
Cc1nc2c(c(CO)nn2C(c2ccc(C(C)(C)C)cc2)C2CC2)c(=O)[nH]1 (single isomer, unassigned) [Example 88, (R)- or (S)-1-((4-tert-Butylphenyl)(cyclopropyl)methyl)-3-(hydroxymethyl)-6-methyl-1H-pyrazolo[3,4-d]pyrimidin-4(5H)-one]	51 nM
Cc1nc2c(c(CO)nn2C2(c3ccc(C(F)(F)F)cc3)CCC2)c(=O)[nH]1 [Example 78, 3-(Hydroxymethyl)-6-methyl-1-(1-(4-(trifluoromethyl)phenyl)cyclobutyl)-1H-pyrazolo[3,4-d]pyrimidin-4(5H)-one]	6.7 nM
Cc1nc2c(c(CCO)nn2C(C)c2ccc(C(F)(F)F)cc2)c(=O)[nH]1 (single isomer, unassigned) [Example 250]	2 nM
